The record followed here is ChEMBL document CHEMBL1201862, “PubChem BioAssay data set” (2004).

Among the test systems are MDA-MB-435; NCI-H226; NCI-H460; NCI-H522; IGROV-1; ACHN; UO-31; BT-549; UACC-62; MOLT-4; SF-268; 786-0; UACC-257; HL-60; HCT-116; SK-OV-3; EKVX; M14; OVCAR-3; T47D.
Holding throughout (assay): inhibition of tumour cell growth, NCI panel, 48 h

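These data come from cells grown in 96-well plates and exposed to compound for 48 hours at five concentrations. The concentration for 50% growth inhibition is given as GI50.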 Activity calls are given as the source filed them. No stated cut-off is given here; in the data, active = GI50 up to about 1.1 µM and inactive = higher.

As for `CC1(C)OC2C(CO)OC(n3ccc(N)nc3=O)C2O1` (stereo not given), the GI50 with MDA-MB-435, in the test with NCI-H226, in the test with NCI-H460, in the test on NCI-H522, with IGROV-1 and with ACHN was > 100 µM (inactive) throughout. Moreover, the GI50 in the test on UO-31, in the test with BT-549, in the test with UACC-62, in the test on MOLT-4, in the test with SF-268 and in the test on 786-0 was > 100 µM (inactive) in each case. For the same compound, the GI50 with UACC-257, in the test with HL-60, in the test on HCT-116, with SK-OV-3, in the test with EKVX and with M14 was > 100 µM (inactive) in each case. Also, the GI50 in the test with OVCAR-3 and in the test on T47D was > 100 µM (inactive) in each case.
Consider `CC[C@@]1(O)C(=O)OCc2c1cc1n(c2=O)Cc2c-1nc1ccccc1c2/C=N\NC(=O)C(N)CO` (stereo not given in full), for which the GI50 in the test on MDA-MB-435 is 4.25 µM (inactive); in the test with NCI-H226, 0.627 µM (active); in the test on NCI-H460, 0.184 µM (active); with NCI-H522, 1.28 µM (inactive); in the test with IGROV-1, 7.59 µM (inactive); in the test on ACHN it was 0.191 µM (active). The GI50 is 0.667 µM (active) in the test with UO-31; 2.56 µM (inactive) with BT-549; < 0.0395 µM (active) with UACC-62; 0.0466 µM (active) with MOLT-4; 0.0643 µM (active) in the test on SF-268; 0.34 µM (active) with 786-0. The GI50 in the test with UACC-257 was 3.59 µM (inactive); with HL-60, 0.335 µM (active); with HCT-116, 1.02 µM (active); in the test on SK-OV-3 it was 2.36 µM (inactive); in the test with EKVX, 18.8 µM (inactive); in the test with M14, 0.492 µM (active). Besides, the GI50 is 16.2 µM (inactive) in the test with OVCAR-3 and 0.239 µM (active) in the test on T47D.
